# Source: the supplement of paper PMC9663587
# Columns and labels:
# [1] = compound: CC(=O)O[C@H]1C(=O)[C@@]2(C)[C@H]([C@H](OC(=O)c3ccccc3)[C@]3(O)C[C@H](OC(=O)[C@H](O)[C@@H](NC(=O)c4ccccc4)c4ccccc4)C(C)=C1C3(C)C)[C@]1(OC(C)=O)CO[C@@H]1C[C@@H]2O [Paclitaxel]
# [2] = compound: T1, CC(=O)c1c(C)c2cnc(Nc3ccc(N4CCN(CCOCCOCCOCCNC(=O)COc5cccc6c5C(=O)N(C5CCC(=O)NC5=O)C6=O)CC4)cn3)nc2n(C2CCCC2)c1=O [BSJ-03-123]
# [3] = compound: CC(C)Nc1cc(-c2c[nH]c(C(=O)N[C@H](CO)c3cccc(Cl)c3)c2)c(Cl)cn1 [BVD523]
# [4] = compound: CCC1=CN=CN=C1N2CCN(CC2)CC3=NC4=C(N3)C=C(C=C4)C(F)(F)F
# [5] = compound: CCOc1cc2ncc(C#N)c(Nc3ccc(OCc4ccccn4)c(Cl)c3)c2cc1NC(=O)/C=C/CN(C)C [Neratinib/HKI272]
# [6] = compound: T2, CN1CC[C@H](c2c(O)cc(O)c3c(=O)cc(-c4ccccc4Cl)oc23)[C@H](O)C1 [Flavopiridol]
# [7] = compound: CO[C@@H](C)Cn1c(=O)n(C)c2cnc3ccc(-c4cncc(C(C)(C)O)c4)cc3c21
# [8] = compound: NC1(C(=O)N[C@@H](CCO)c2ccc(Cl)cc2)CCN(c2nc[nH]c3nccc2-3)CC1 [AZD5363]
# [9] = compound: C=CC(=O)Nc1ccc(C(=O)Nc2[nH]nc3c2CN(C(=O)N[C@H](CN(C)C)c2ccccc2)C3(C)C)cc1 [YKL-5-124]; test: GR value, 72 h; higher = faster growth (1 = untreated, <0 = killing);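 also: breast cancer and non-malignant breast epithelial lines, nine half-log doses, viable cells counted by Hoechst and LIVE/DEAD dye imaging versus time-zero plates and DMSO controls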
# [10] = compound: T1, BSJ-03-123; test: as above
# [11] = compound: CCN1CCN(Cc2ccc(Nc3ncc(F)c(-c4cc(F)c5nc(C)n(C(C)C)c5c4)n3)nc2)CC1; test: as above
# [12] = compound: CCc1cnn2c(NCc3ccc[n+]([O-])c3)cc(N3CCCC[C@H]3CCO)nc12; test: as above
# [13] = compound: CN(C)C(=O)c1cc2cnc(Nc3ccc(N4CCNCC4)cn3)nc2n1C1CCCC1 [LEE011/Ribociclib]; test: as above
# [14] = compound: CN(C)C/C=C/C(=O)Nc1ccc(C(=O)N2CCC[C@@H](Nc3ncc(Cl)c(-c4c[nH]c5ccccc45)n3)C2)cc1 [THZ531]; test: as above
# [15] = compound: CN(C)C/C=C/C(=O)Nc1ccc(C(=O)Nc2cccc(Nc3ncc(Cl)c(-c4c[nH]c5ccccc45)n3)c2)cc1 [THZ1]; test: as above
# [16] = compound: T2, Flavopiridol; test: as above
# 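For GR50, 72 h in this document: breast cancer and non-malignant breast epithelial cell lines, Deep Dye Drop or Dye Drop imaging, nine half-log doses, GR normalized to time-zero plates and DMSO-only controls.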
cell line,measurement,setting,value
MDAMB175VII,"GR50, 72 h",[1],0.00295 µM
same,"GR50, 72 h",[2],0.301 µM
same,"GR50, 72 h",[3],0.255 µM
same,"GR50, 72 h",[4],1.34 µM
same,"GR50, 72 h",[5],0.00127 µM
same,"GR50, 72 h",[6],0.0523 µM
same,"GR50, 72 h",[7],< 0.001 µM
same,"GR50, 72 h",[8],0.0495 µM
same,GR value,[9]; 0.001 µM,0.0803 GR
same,GR value,[9]; 0.003162 µM,0.0736 GR
same,GR value,[9]; 0.01 µM,0.0488 GR
same,GR value,[9]; 0.03162 µM,0.076 GR
same,GR value,[9]; 0.1 µM,0.0075 GR
same,GR value,[9]; 0.3162 µM,0.118 GR
same,GR value,[9]; 1 µM,-0.0042 GR
same,GR value,[9]; 3.162 µM,0.0879 GR
same,GR value,[9]; 10 µM,-0.754 GR
same,GR value,[10]; 0.001 µM,0.829 GR
same,GR value,[10]; 0.003162 µM,0.79 GR
same,GR value,[10]; 0.01 µM,0.713 GR
same,GR value,[10]; 0.03162 µM,0.688 GR
same,GR value,[10]; 0.1 µM,0.734 GR
same,GR value,[10]; 0.3162 µM,0.573 GR
same,GR value,[10]; 1 µM,0.378 GR
same,GR value,[10]; 3.162 µM,0.262 GR
same,GR value,[10]; 10 µM,0.0206 GR
same,GR value,[11]; 0.001 µM,0.725 GR
same,GR value,[11]; 0.003162 µM,0.505 GR
same,GR value,[11]; 0.01 µM,0.0712 GR
same,GR value,[11]; 0.03162 µM,0.105 GR
same,GR value,[11]; 0.1 µM,0.0173 GR
same,GR value,[11]; 0.3162 µM,0.0287 GR
same,GR value,[11]; 1 µM,-0.0111 GR
same,GR value,[11]; 3.162 µM,-0.0725 GR
same,GR value,[11]; 10 µM,-0.173 GR
same,GR value,[12]; 0.0001 µM,1.09 GR
same,GR value,[12]; 0.0003162 µM,1.07 GR
same,GR value,[12]; 0.001 µM,1.14 GR
same,GR value,[12]; 0.003162 µM,1.23 GR
same,GR value,[12]; 0.01 µM,0.742 GR
same,GR value,[12]; 0.03162 µM,-0.651 GR
same,GR value,[12]; 0.1 µM,-0.516 GR
same,GR value,[12]; 0.3162 µM,-0.49 GR
same,GR value,[12]; 1 µM,-0.497 GR
same,GR value,[13]; 0.001 µM,0.4 GR
same,GR value,[13]; 0.003162 µM,0.267 GR
same,GR value,[13]; 0.01 µM,0.288 GR
same,GR value,[13]; 0.03162 µM,0.15 GR
same,GR value,[13]; 0.1 µM,0.195 GR
same,GR value,[13]; 0.3162 µM,0.0606 GR
same,GR value,[13]; 1 µM,0.0351 GR
same,GR value,[13]; 3.162 µM,0.19 GR
same,GR value,[13]; 10 µM,0.192 GR
same,GR value,[14]; 0.0001 µM,0.885 GR
same,GR value,[14]; 0.0003162 µM,0.884 GR
same,GR value,[14]; 0.001 µM,0.841 GR
same,GR value,[14]; 0.003162 µM,0.919 GR
same,GR value,[14]; 0.01 µM,1 GR
same,GR value,[14]; 0.03162 µM,0.677 GR
same,GR value,[14]; 0.1 µM,-0.409 GR
same,GR value,[14]; 0.3162 µM,-0.673 GR
same,GR value,[14]; 1 µM,-0.403 GR
same,GR value,[15]; 0.0001 µM,0.829 GR
same,GR value,[15]; 0.0003162 µM,1.05 GR
same,GR value,[15]; 0.001 µM,1.01 GR
same,GR value,[15]; 0.003162 µM,0.843 GR
same,GR value,[15]; 0.01 µM,0.736 GR
same,GR value,[15]; 0.03162 µM,0.515 GR
same,GR value,[15]; 0.1 µM,-0.0075 GR
same,GR value,[15]; 0.3162 µM,-0.159 GR
same,GR value,[15]; 1 µM,-0.44 GR
same,GR value,[16]; 0.0001 µM,0.962 GR
same,GR value,[16]; 0.0003162 µM,1 GR
same,GR value,[16]; 0.001 µM,0.765 GR
same,GR value,[16]; 0.003162 µM,0.721 GR
same,GR value,[16]; 0.01 µM,0.675 GR
same,GR value,[16]; 0.03162 µM,0.748 GR
same,GR value,[16]; 0.1 µM,0.442 GR
same,GR value,[16]; 0.3162 µM,-0.175 GR
same,GR value,[16]; 1 µM,-0.302 GR
